Patent publication US11912645B2, “Lipopeptide compounds for the treatment of pain disorders” (INSERM (Institut National de la Santé et de la Recherche …, priority 2017, dated 2024)

Legend:
[1] = system: DSS-induced visceral hypersensitivity; assay: DSS-induced colitis visceral hypersensitivity, visceromotor response to colorectal distension; format: in vivo, mouse; conditions: DSS 3% 5 days; 100 μL intracolonic 10 μM at day 5; CRD 15-60 mm Hg
Procedure: FIG. 9: C12-Asn-GABA Inhibits DSS-induced visceral hypersensitivity. Mice received DSS 3% in their drinking water for 5 days to induce colitis. At day 5, mice were intracolonically administrated with C12-Asn-GABA (10 μM; black circles) or vehicle (40% ethanol; white circles). Thirty minutes after intracolonic administration, visceromotor response (VMR) to increasing pressures of colorectal distension was performed. Data are expressed as mean±SEM, n=5 mice per group.
The analgesic properties of the C12-Asn-GABA was assessed in a mouse colitis model. Dextran sulfate sodium (DSS) at 3% during 5 days was added in the drinking water in order to induce colitis.

Caco-2 cells = assay: CXCL8 secretion by Caco-2 cells (ELISA); format: cell-based, human; conditions: 1, 10, 100 μM; 24 hours
Procedure: FIG. 5: C12-Asn-GABA crosses the epithelial barrier without modifying epithelial cells physiology. Caco-2 cells were cultivated into transwell chambers. After treatment with C12-Asn-GABA (800 ng) at the apical side, C12-Asn-GABA was quantified inside the cells and both the apical and basolateral compartments by LC-MS/MS (A); data are represented as mean±SEM, n=3 experiments of 3 wells per condition. Extracted ion chromatogram at the exact mass of GABA (104.0702 m/z) with a mass accuracy of 5 ppm of the GABA commercial standard (GABA (Std.) and apical and basolateral compartments after loading or not Caco-2 cells with 800 ng of GABA at the apical site (B); representation of one well, n=3 experiments of 3 wells per condition. Paracellular permeability assessed by the passage of FITC-dextran loaded at the apical side (C) and CXCL8 secretion assessed by ELISA (D) were monitored after treatment of Caco-2 cells at the apical side with C12-Asn-GABA (10 μM); data are represented as mean±SEM, n=3 experiments of 3 wells per condition. […]
To assess the effect of C12-Asn-GABA on paracellular permeability, transport of dextran 4 kDa FITC across a Caco-2 cell monolayer was investigated. […] In parallel, the release of CXCL8 from Caco-2 cells into the medium, of both apical and basolateral sides of the transwell, was assessed by ELISA. […]

duodenal preparations = assay: Ex vivo duodenal mechanical contraction (isotonic sensors); set-up: species or system mouse; conditions: 10 μM, vs control and vehicle
Procedure: FIG. 6: C12-Asn-GABA inhibits capsaicin-induced visceral hypersensitivity without altering Intestinal contraction. Mice received intracolonic administration of C12-Asn-GABA (10 μM; black symbols) or vehicle (40% ethanol; white symbols) and 30 minutes or 4 hours later colon (A) and blood (B) were harvested in order to quantify C12-Asn-GABA by LC-MS/MS. Data are expressed as mean±SEM, n=8 mice per group. […] Mice received intracolonic administration of C12-Asn-GABA (10 μM; black symbols) or vehicle (40% ethanol; white symbols) and 30 minutes or 4 hours later an intracolonic administration of capsaicin (100 μg/mouse; square) or its vehicle (40% ethanol; circle). Fifteen minutes after capsaicin or vehicle treatment, visceromotor response (VMR) to increasing pressures of colorectal distension was performed. Data are expressed as mean±SEM, n=7-8 mice per group. […] Ex vivo measurement of duodenal mechanical contraction frequency (B) and amplitude (C) in response to Krebs-Ringer solution (control; white bar), to DMSO 0.2% (vehicle; gray bar) or to C12-Asn-GABA (10 μM; black bar). Data are expressed as mean±SEM, n=5-6 per group. […]
IBS patients are characterized by diverse alterations of gut transit: diarrhea, constipation or mixed^1, thus a drug impairing bowel motility could limit its putative use in this pathology. We evaluated whether C12-Asn-GABA was capable of impairing duodenal motility. […]

Compound: CCCCCCCCCCCC(=O)NC(CC(N)=O)C(=O)NCCCC(=O)O (stereo not shown) [C12-Asn-GABA, C11 C(O)-Asn-gamma-aminobutyric acid]
- DSS-induced increase in VMR to CRD [1]: significantly decreased for all distension pressures
- secretion of CXCL8 (apical and basolateral) (Caco-2 cells): None of the tested doses (1, 10, 100 μM) and neither the vehicle modified the secretion of CXCL8
- amplitude of intestinal contractions (duodenal preparations): nor the amplitude of intestinal contractions
- frequency of duodenal contractions (duodenal preparations): impairs neither the frequency of contractions
